Drawing on a melting point compilation (Tetko et al.), this text covers melting point for 78 molecules.

Structures are written as SMILES.

For `O=C(Cc1ccccc1)C(Cc1ccccc1)=NNc1ccc([N+](=O)[O-])cc1`, the melting point (in general, the temperature, or range, at which the solid turns liquid) was 174 °C.

`CCCCCCCCCCCC(=O)OOC(=O)CCCCCCCCCCC`: the melting point is 53 to 57 °C.

As to `COC(=O)C1=NC(C)(C)[N+]([O-])=C1`, the melting point is 80 to 83 °C.

Molecule `CCCCNC(=O)C(C(F)(F)F)C(F)(F)F` returned a melting point of 94 °C.

On to `C[C@]12CCC(=O)CC1CCC1=C2CC[C@]2(C)C(=O)CC[C@@H]12` (stereo partly drawn), for which the melting point was found to be 148 °C.

In turn, `O=C(Br)C(=O)Br` had a melting point of -19 °C.

As to `Cc1cncc([N+](=O)[O-])c1`, the melting point turned out to be 96 °C.

`CC(=O)N1CCc2cc(S(=O)(=O)Cl)ccc21`: the melting point lay in the range of 172 to 174 °C.

In turn, `N=c1sc(C(=O)c2cccs2)nn1-c1[nH]nc(-c2ccccc2)c1Br` gave a melting point of 102 to 103 °C.

As for `CCCCCCCCCCOc1ccc(C(C)=O)cc1OCCCCCCCCCC`, the melting point was in the range of 61 to 65 °C.

Molecule `CCCCCCCCC(=O)Oc1ccc(/N=N/c2ccc(CCCC)cc2)cc1` showed a melting point of 50 to 53 °C.

With `CN(C)c1ccc(C=C2C3=C(CCCC3)OC3=C2CCCC3)cc1`, the melting point stood at 164 °C.

For `[N-]=[N+]=Nc1ccccc1-c1ccccc1`, the melting point came to 49 °C.

As for `CC1(C)C(C(=O)OC(C#N)c2cccc(Oc3ccccc3)c2)C1(C)C` (stereo not drawn), the melting point turned out to be 47.5 °C.

With `O=C(C1=NOC2C(=O)N(c3cccc([N+](=O)[O-])c3)C(=O)C12)c1cccc2ccccc12` (stereo not drawn), the melting point stood at 191 °C.

In turn, `O=C(O)C(F)(F)C(F)(F)C(F)(F)C(F)(F)C(F)(F)C(F)(F)C(F)(F)C(F)(F)C(F)(F)C(F)(F)C(F)(F)C(F)(F)F` gave a melting point of 118 to 122 °C.

`Brc1cc(Br)c(Oc2cc(Br)c(Br)cc2Br)c(Br)c1` displayed a melting point of 131 to 132 °C.

The molecule `Cc1ccc(N)c(Cl)c1` returned a melting point of 7 °C.

In the case of `COc1ccc(-c2ccc(S(=O)(=O)NCC(=O)O)cc2)cc1`, the melting point was 186 °C.

With `Cn1c(=O)cc(NN)c2ccccc21`, the melting point is 216 °C.

`Nc1c(Cl)cc(C(F)(F)F)cc1Br` had a melting point of 31 °C.

`CC(C)Oc1cc(-n2nc(C(C)(C)C)oc2=O)c(Cl)cc1Cl` came in with a melting point of 90 °C.

`O=C(O)c1snnc1-c1ccccc1` yielded a melting point of 144 to 145 °C.

In turn, `O=C(O)CONC(=O)c1ccccc1` returned a melting point of 140 °C.

On to `Cc1onc(-c2ccc(F)cc2)c1C(=O)O`, for which the melting point lay in the range of 197 to 200 °C.

Consider `COCCOC`, for which the melting point was -58 °C.

In turn, `CC(C)CC(C)(N)P(=O)(O)O` (stereo not drawn) came in with a melting point of 234 to 238 °C.

In the case of `O=C1C=C2C=C[C@@H]3C[C@@]2(O1)[C@H]1CCCCN31`, the melting point was 142 °C.

On to `Cc1c(-c2ccccc2)n(C)c2ccccc12`, for which the melting point was determined as 69 °C.

For the molecule `O=C(C1=NOC2C(=O)N(c3cc(Cl)ccc3Cl)C(=O)C12)c1cccs1` (stereo not drawn), the melting point stood at 221 °C.

Molecule `CCC(COCCOc1c(I)cc(I)c(NC(C)=O)c1I)C(=O)O` (stereo not drawn) had a melting point of 130 °C.

Molecule `CCCCCCCCN(C)CCCCCCCC` displayed a melting point of -30.1 °C.

`CNc1ccc(C(=O)O)cc1` had a melting point of 160 to 163 °C.

For `Cc1cc(C)c(S(=O)(=O)n2ccnc2)c(C)c1`, the melting point lay in the range of 95 to 99 °C.

As for `CCC(C)C(N)CO` (stereo not drawn), the melting point was in the range of 36 to 39 °C.

For the molecule `Nc1nnc(C2CCC2)[nH]1`, the melting point was in the range of 153 to 155 °C.

`CCCCC#CCCCC` showed a melting point of -73 °C.

With `C=C(C)C(=O)NCO`, the melting point was -37 °C.

`CCC(O)c1cc(C)ccc1O` (stereo not drawn): the melting point was found to be 143 °C.

For the molecule `O=C1C2=C(C(=O)c3ccccc31)C1(CC1)C21CC1`, the melting point worked out at 103 °C.

As to `CCc1c(C)c[nH]c1C`, the melting point was found to be 0 °C.

Turning to `CCN(CC)C(=O)c1cccc(C)c1`, the melting point is -45 °C.

With `O=C(O)C1OC(O)C(O)C(O)C1O` (stereo not drawn), the melting point lay within 158 to 162 °C.

In the case of `C#CCN1C(=O)CN=C(c2ccccc2)c2cc(Cl)ccc21`, the melting point stood at 141 °C.

Take `Cc1nc2ccc([N+](=O)[O-])cc2o1`: the melting point was determined as 155 °C.

As to `CC(NC(=O)C(C(F)(F)F)C(F)(F)F)c1ccccc1` (stereo not drawn), the melting point was found to be 137 °C.

`CCOC(=O)c1c(C)oc(NC(=O)Nc2ccc(F)cc2)c1C(=O)OCC` yielded a melting point of 146 to 148 °C.

As for `OC1CC2CCC1C2` (stereo not drawn), the melting point turned out to be 149 °C.

`Cn1c(S)nnc1-c1ccc(Cl)cc1Cl` registered a melting point of 175 to 177 °C.

On to `Cc1ccc(C=C[N+](=O)[O-])cc1`, for which the melting point was 96 to 99 °C.

Consider `COC(=O)[C@H]1OC(c2ccc(OC)c(OC)c2)([C@@H](C)Br)O[C@@H]1C(=O)OC`, for which the melting point was found to be 97.3 °C.

For the molecule `OC[C@H]1CC[C@H](CO)CC1`, the melting point fell in the range of 61 to 66 °C.

Molecule `Clc1cc2nsnc2cc1CBr` displayed a melting point of 75 to 77 °C.

The molecule `O=C(O)CCc1cccc(O)c1` returned a melting point of 112 °C.

Molecule `Cc1ccc(Nc2ccc(Nc3ccc(C)cc3)c3c2C(=O)c2ccccc2C3=O)cc1` displayed a melting point of 218 °C.

For the molecule `CC(CCC(=O)O)C1CCC2C(C(=O)O)C(C3(C)CCCCC3C(=O)O)CCC12C` (stereo not drawn), the melting point lay in the range of 265 to 267 °C.

Molecule `COc1cc2c(cc1OC)C(c1ccccc1)=NCC2` showed a melting point of 121 to 125 °C.

In turn, `CC(C)Cc1ccc(C(C)C(=O)NN)cc1` (stereo not drawn) displayed a melting point of 76 to 78 °C.

`NC(=O)Cc1nc(-c2ccc([N+](=O)[O-])cc2)cs1` came in with a melting point of 202 to 203 °C.

In turn, `Cc1ccc2cc(Cl)c(Cl)cc2n1` yielded a melting point of 121 to 123 °C.

In the case of `Cc1cc(O)c(C)c(C)c1O`, the melting point was 173 °C.

With `Clc1cccc2cc[nH]c12`, the melting point was found to be 58 °C.

`Cc1ccc(Cl)nn1` showed a melting point of 57 °C.

On to `Cc1nc(N(C)C)nc(OC(=O)N(C)C)c1C`, for which the melting point was found to be 91.6 °C.

`O=C(COc1ccc(Cl)cc1)n1c(=O)sc2ccccc21`: the melting point was 143 °C.

Consider `O=C(O)c1coc2c1C(=O)CCC2`, for which the melting point was in the range of 140 to 143 °C.

With `O=Cc1ccc(C(=O)O)s1`, the melting point amounted to 169 °C.

Take `O=[N+]([O-])c1ccc2c(c1)oc1ccccc12`: the melting point was found to be 182 °C.

In the case of `COc1ccc2c3c1OC1C(=O)CCC4(O)C(C2)N(C)CCC314` (stereo not drawn), the melting point is 219 °C.

For the molecule `CC(=O)NCCc1c[nH]c2ccc(O)cc12`, the melting point lay in the range of 120 to 122 °C.

For the molecule `CN(C)c1ccc(C=C/C(=N\Nc2ccccc2)c2ccccc2)cc1`, the melting point fell in the range of 127 to 128 °C.

Turning to `CC(C)(Oc1ccc(C(C)(C)C)cc1)C(=O)O`, the melting point fell in the range of 97 to 98 °C.

For `CC=C1CCC2C3CCC4CC(OC(C)=O)CCC4(C)C3CCC12C` (stereo not drawn), the melting point was 118 to 120 °C.

With `NNC(=S)Nc1ccc(F)cc1`, the melting point was in the range of 171 to 172 °C.

For `CCC=C(c1ccccc1)c1ccccc1`, the melting point was -1 °C.

`Cc1ncccn1` registered a melting point of -4 °C.

`c1ccc2c(c1)OCCOCCOCCOc1ccccc1OCCOCCOCCO2` registered a melting point of 102 to 106 °C.

In turn, `CN1CCN(c2cccc([N+](=O)[O-])c2)CC1` returned a melting point of 60 to 62 °C.
